Test [1] relates to TNBS-induced ulcerative colitis mice. The experiment in a line: colon length of TNBS-induced ulcerative colitis mice. The format is in vivo. The settings on record: three days after TNBS enema.
The subject of a further test is IL-6. The experiment in a line: serum inflammatory cytokine IL-6 in TNBS-induced ulcerative colitis mice. It counts as in vivo.
A further test relates to COX-2. Briefly: expression of COX-2 in colon tissue. It counts as in vivo. Conditions: TNBS-induced mice. The text has this: Cyclooxygenase-2 (COX-2) is undetectable in normal human colonic epithelial cells, but the presence of a large amount of COX-2 can be detectable in the intestinal mucosal epithelial cells of CD patients and UC patients. Such high expression can cause elevated expression of pro-inflammatory substance of prostaglandin, and promote IBD epithelial congestion and edema.

For test [2], the system named is TNBS-induced ulcerative colitis mice. Briefly: histopathological observation (HE staining, CMDI) of the colon of TNBS-induced ulcerative colitis mice. It counts as in vivo. The text has this:
Colon tissues were paraffin-embedded and sliced in parallel with HE staining.

For a further test, the system named is TNF-α. The experiment in a line: serum inflammatory cytokine TNF-α in TNBS-induced ulcerative colitis mice. The format is in vivo.
For another test, the system named is IL-1β. Briefly: serum inflammatory cytokine IL-1β in TNBS-induced ulcerative colitis mice. The format is in vivo.
Test [3] relates to TNBS-induced ulcerative colitis mice. The experiment in a line: body weight of TNBS-induced ulcerative colitis mice. The format is in vivo. The text has this: The mice of normal control group were shown lively, body hair shiny, and weight continued to increase. The model mice after TNBS enema appeared to be apathetic and lazy with body hair messy and less luster, and with water intake being reduced. The model mice were also shown continuing decrease in body weight, with an average weight loss of 17.9% on the third day compared with that before rectal perfusion.

The test system of test [4] is p65 subunit in the NF-κB signaling pathway. The experiment in a line: Western blotting of p-p65 and p65 in colonic tissues. Conditions: compared with the model group. The format is in vivo, mice. The text has this: NF-κB, as a key transcription factor regulating the release of inflammatory cytokines, plays an important role in the complex cytokine dysregulation network of IBD. To investigate whether the inhibitory effect of AL-1 on the expression of inflammatory cytokines TNF-α, IL-6 and IL-1β is related to the activation of NF-κB signaling pathway, the present inventors used Western blotting to detect the expression of p-p65 and p65 in colonic tissues.
Background: A western blot detects proteins with antibodies after separation by electrophoresis.

The test system of another test is PPAR-γ. The experiment in a line: amount of PPAR-γ expressed in colon tissue. The format is in vivo. The settings on record: TNBS-induced mice. The text has this: Peroxisome proliferator-activated receptor γ (PPAR-γ) may have anti-inflammatory effects by inhibiting the expression of transcription factors NF-κB, AP-1 and other related genes, have the effects of reducing the expression of inflammatory factors and adhesion molecules, and play important role for maintaining the integrity of the intestinal mucosa. Studies have shown that, when IBD occurred, the in vivo expression of PPAR-γ would be reduced in some extent.

Test [5] concerns TNBS-induced ulcerative colitis mice. The experiment in a line: morphological observation of the colon of TNBS-induced ulcerative colitis mice. The format is in vivo. The text has this: In the TNBS model group mice, the lesions of the colon were obvious, the colon was shortened, the proximal colon was dilated with indication of obstructive lesions, and the distal intestine became narrowed with indication of ulceration with congestion, edema, erosion and intestinal wall thickening.

Test [6] shares this test system. The experiment in a line: disease activity index (DAI) of TNBS-induced ulcerative colitis mice. It counts as in vivo. Conditions: third day after enema.
A further test concerns myeloperoxidase (MPO). Briefly: MPO activity test in colon tissue of TNBS-induced ulcerative colitis mice. The format is in vivo. The text has this: It can be seen from the results of MPO activity test in colonic tissues that the content of MPO in normal tissue was very low, the neutrophil infiltration was obvious in model group treated with TNBS, and the content of MPO increased obviously, being twice as that in normal group.

For test [7] the following is noted: first 60 minutes of the reaction, in vitro; cited from earlier work.

Data on two compounds can be found in patent US11903923B2, “Use of andrographolide derivatives in preparation of medicaments for preventing and treating inflammatory bowel diseases” (GUANGZHOU MAGPIE PHARMACEUTICALS CO., LTD., priority 2015, dated 2024).

For the compound `Nc1ccc(O)c(C(=O)O)c1` [Mesalazine, reference compound], in test [1] (Mesalazine, compared with the model groups), the “improvement of colon length” value was “not significant”. In addition, the “serum level of IL-6” value in the test with IL-6 (Mesalazine) is reported as “significantly lessen the increase”. Further, in the test on COX-2, the “COX-2 expression level in colon tissue” value is “effectively inhibit the increase of COX-2 expression level”. In addition, the “colon histopathology (HE staining)” value in test [2] (100 mg/kg) is listed as “obvious relief of myositis cell infiltration”. For the same compound, the “CMDI (mucosal injury)” value in [2] (Mesalazine) was “significant effect to improve mucosal injury”. The “serum level of TNF-α” value in the test on TNF-α (Mesalazine) is listed as “significantly lessen the increase”. Also, the “serum level of IL-1β” value in the test with IL-1β (Mesalazine) is given as “significantly lessen the increase”. In addition, the “body weight of the mice” value in test [3] (Mesalazine, from the second day after modeling, P<0.05) is recorded as “significantly increased body weight”. For the same compound, the “phosphorylation level of p65 in colonic tissue” value in test [4] is on record as “significantly reduce the phosphorylation level of p65”. Besides, the “expression of PPAR-γ in colon tissue” value with PPAR-γ is given as “significantly increased the expression of PPAR-γ”. The colon morphology entry in test [5] (Mesalazine group) was “improvement on colon injury”. Besides, in [6] (100 mg/kg), the “average DAI score” value was found to be 5.13. The “MPO content in the colon tissue” value in the test with myeloperoxidase (MPO) (Mesalazine, P<0.01) is on record as “obviously reduce the content of MPO”.

`C=C1CCC2[C@@](C)(CC[C@@H](O)[C@@]2(C)CO)C1C/C=C1/C(=O)OCC1OC(=O)CCCCC1CCSS1` (stereo partly shown) [AL-1]: the colon length result in test [1] (AL-1 5, 15 and 45 mg/kg) was “enhanced the colonic length”. The “serum level of IL-6” value in the test with IL-6 (AL-1 5, 15, 45 mg/kg) is reported as “significantly lessen the increase”. Also, the “COX-2 expression level in colon tissue” value with COX-2 is “effectively inhibit the increase of COX-2 expression level”. In addition, the “colon histopathology (HE staining)” value was “obvious myositis cell infiltration of mucosa and submucosa but in much less extent as compared with the model groups” in test [2] (5 mg/kg); “myositis cell infiltration was reduced” in test [2] (15 mg/kg); “significant reduction in the amount of myositis cell infiltration of mucosa and submucosa” in test [2] (45 mg/kg). The “CMDI (tissue damage)” value in test [2] (AL-1 5, 15 and 45 mg/kg) is reported as “improve tissue damage in a dose-dependent manner”. For the same compound, in the test with TNF-α (AL-1 5, 15, 45 mg/kg), the “serum level of TNF-α” value is on record as “significantly lessen the increase”. In addition, the “binding rate with the sulfydryl group of GSH relative to Andro” value in test [7] is recorded as 7 times. Moreover, the “serum level of IL-1β” value in the test on IL-1β (AL-1 5, 15, 45 mg/kg) is given as “significantly lessen the increase”. Also, in test [3] (AL-1 45 mg/kg, third day), the “body weight increase on average compared with the model group” value came out at 4.65%. For the same compound, the “phosphorylation level of p65 in colonic tissue” value in test [4] is given as “significantly reduce the phosphorylation level of p65”. In addition, in the test on PPAR-γ, the “expression of PPAR-γ in colon tissue” value was “significantly increased the expression of PPAR-γ”. The colon morphology entry in [5] (AL-1 5, 15 and 45 mg/kg) is recorded as “significant reduction of the symptoms”. Besides, the “average DAI score” value in [6] (5 mg/kg) was found to be 6.00; in test [6] (15 mg/kg), 6.25; in test [6] (45 mg/kg), 4.00. Besides, the “MPO content in the colon tissue” value in the test with myeloperoxidase (MPO) (AL-1 5, 15 and 45 mg/kg) was “lessen in a dose-dependent manner the increase of the MPO content”.
